Assay results from patent EP1795539B1, “Cell penetrating peptides for intracellular delivery of molecules” (Centre National de la Recherche Scientifique, priority 2005, dated 2007).
Read-outs that look alike come from different tables or passages of the source. Numbered stars: 1 amine (or outer) side, 2 acyl side, 3 side chain; on linkers, the order of the positions; unused ones are H or OH. Ends that are not written are not given here. Peptide text beside a SMILES is read from it. Cysteamide = C(CS[*:3])N[*:1]

How the values were obtained:
HS-68 and Hela cells = assay: Toxicity of CADY variants, MTT cell viability assay (Table 1); assay type: cell-based; settings: for toxicity: at concentration of 100 µM
Description: The toxicity of CADY peptides has been investigated on different cell lines. Cells were incubated in the presence of increasing concentrations of CADY (from 0.1 µM to 1 mM) for 12 hrs and cell viability was estimated using MTT assay.

[1] = biological target: short 17-residues peptide (cargo used with CADY-2); assay: steady state Trp fluorescence quenching; fixed CADY (0.1 uM) titrated with cargo peptide; quadratic fit
[2] = free peptide, MTT, read-out: free EC50

| Molecule | EC50 (HS-68 and Hela cells; [2]) [µM] | other results |
| --- | --- | --- |
| CC(C)C[C@H](NC(=O)CN)C(=O)N[C@@H](Cc1c[nH]c2ccccc12)C(=O)N[C@@H](CCCNC(=N)N)C(=O)N[C@@H](C)C(=O)N[C@@H](CC(C)C)C(=O)N[C@@H](Cc1c[nH]c2ccccc12)C(=O)N[C@@H](CCCNC(=N)N)C(=O)N[C@@H](C)C(=O)N[C@@H](CC(C)C)C(=O)N[C@@H](Cc1c[nH]c2ccccc12)C(=O)N[C@@H](CCCNC(=N)N)C(=O)N[C@@H](CO)C(=O)N[C@@H](CC(C)C)C(=O)N[C@@H](Cc1c[nH]c2ccccc12)C(=O)N[C@@H](CCCCN)C(=O)N[C@@H](CC(C)C)C(=O)N[C@@H](CCCCN)C(=O)N[C@@H](CCCNC(=N)N)C(=O)N[C@@H](CCCCN)C(=O)N[C@H](C(=O)NCCS)C(C)C [CADY-1b] (HELM PEPTIDE1{G.L.W.R.A.L.W.R.A.L.W.R.S.L.W.K.L.K.R.K.V.[SCCN[*:1]]}$$$$V2.0) | 500 | EC50 (HS-68 and Hela cells; free peptide, MTT, listed as CADY-2d, read-out: free EC50): 380 µM |
| CC(C)C[C@H](NC(=O)CN)C(=O)N[C@@H](Cc1c[nH]c2ccccc12)C(=O)N[C@@H](CCCNC(=N)N)C(=O)N[C@@H](C)C(=O)N[C@@H](CC(C)C)C(=O)N[C@@H](Cc1c[nH]c2ccccc12)C(=O)N[C@@H](CCCNC(=N)N)C(=O)N[C@@H](C)C(=O)N[C@@H](CC(C)C)C(=O)N[C@@H](CCCNC(=N)N)C(=O)N[C@@H](CO)C(=O)N[C@@H](CC(C)C)C(=O)N[C@@H](Cc1c[nH]c2ccccc12)C(=O)N[C@@H](CCCCN)C(=O)N[C@@H](CC(C)C)C(=O)N[C@@H](CCCCN)C(=O)N[C@@H](CCCNC(=N)N)C(=O)N[C@@H](CCCCN)C(=O)N[C@H](C(=O)NCCS)C(C)C [CADY-1c] (HELM PEPTIDE1{G.L.W.R.A.L.W.R.A.L.R.S.L.W.K.L.K.R.K.V.[SCCN[*:1]]}$$$$V2.0) | 450 |  |
| CC(C)C[C@H](NC(=O)CN)C(=O)N[C@@H](Cc1c[nH]c2ccccc12)C(=O)N[C@@H](CCCNC(=N)N)C(=O)N[C@@H](C)C(=O)N[C@@H](CC(C)C)C(=O)N[C@@H](Cc1c[nH]c2ccccc12)C(=O)N[C@@H](CCCNC(=N)N)C(=O)NCC(=O)N[C@@H](CC(C)C)C(=O)N[C@@H](CCCNC(=N)N)C(=O)N[C@@H](CO)C(=O)N[C@@H](CC(C)C)C(=O)N[C@@H](Cc1c[nH]c2ccccc12)C(=O)N[C@@H](CCCCN)C(=O)N[C@@H](CC(C)C)C(=O)N[C@@H](CCCCN)C(=O)N[C@@H](CCCNC(=N)N)C(=O)N[C@@H](CCCCN)C(=O)N[C@H](C(=O)NCCS)C(C)C [CADY-1d] (HELM PEPTIDE1{G.L.W.R.A.L.W.R.G.L.R.S.L.W.K.L.K.R.K.V.[SCCN[*:1]]}$$$$V2.0) | 500 |  |
| CC(C)C[C@H](NC(=O)CN)C(=O)N[C@@H](Cc1c[nH]c2ccccc12)C(=O)N[C@@H](CCCNC(=N)N)C(=O)N[C@@H](C)C(=O)N[C@@H](CC(C)C)C(=O)N[C@@H](Cc1c[nH]c2ccccc12)C(=O)N[C@@H](CCCNC(=N)N)C(=O)NCC(=O)N[C@@H](CC(C)C)C(=O)N[C@@H](CCCNC(=N)N)C(=O)N[C@@H](CO)C(=O)N[C@@H](CC(C)C)C(=O)N[C@@H](Cc1c[nH]c2ccccc12)C(=O)N[C@@H](CCCCN)C(=O)N[C@@H](CCCCN)C(=O)N[C@@H](CCCCN)C(=O)N[C@@H](CCCNC(=N)N)C(=O)N[C@@H](CCCCN)C(=O)N[C@H](C(=O)NCCS)C(C)C [CADY-1e] (HELM PEPTIDE1{G.L.W.R.A.L.W.R.G.L.R.S.L.W.K.K.K.R.K.V.[SCCN[*:1]]}$$$$V2.0) | 340 |  |
| CC(=O)NCC(=O)N[C@@H](CC(C)C)C(=O)N[C@@H](Cc1c[nH]c2ccccc12)C(=O)N[C@@H](CCCNC(=N)N)C(=O)N[C@@H](C)C(=O)N[C@@H](CC(C)C)C(=O)N[C@@H](Cc1c[nH]c2ccccc12)C(=O)N[C@@H](CCCNC(=N)N)C(=O)N[C@@H](C)C(=O)N[C@@H](CC(C)C)C(=O)N[C@@H](Cc1c[nH]c2ccccc12)C(=O)N[C@@H](CCCNC(=N)N)C(=O)N[C@@H](CO)C(=O)N[C@@H](CC(C)C)C(=O)N[C@@H](Cc1c[nH]c2ccccc12)C(=O)N[C@@H](CCCCN)C(=O)N[C@@H](CC(C)C)C(=O)N[C@@H](CCCCN)C(=O)N[C@@H](Cc1c[nH]c2ccccc12)C(=O)N[C@@H](CCCCN)C(=O)N[C@H](C(=O)NCCS)C(C)C [CADY-2] (HELM PEPTIDE1{[ac].G.L.W.R.A.L.W.R.A.L.W.R.S.L.W.K.L.K.W.K.V.[SCCN[*:1]]}$$$$V2.0) | 230 |  |
| CC(C)C[C@H](NC(=O)CN)C(=O)N[C@@H](Cc1c[nH]c2ccccc12)C(=O)N[C@@H](CCCNC(=N)N)C(=O)N[C@@H](C)C(=O)N[C@@H](CC(C)C)C(=O)N[C@@H](Cc1c[nH]c2ccccc12)C(=O)N[C@@H](CCCNC(=N)N)C(=O)N[C@@H](C)C(=O)N[C@@H](CC(C)C)C(=O)N[C@@H](Cc1c[nH]c2ccccc12)C(=O)N[C@@H](CCCNC(=N)N)C(=O)N[C@@H](CO)C(=O)N[C@@H](CC(C)C)C(=O)N[C@@H](Cc1c[nH]c2ccccc12)C(=O)N[C@@H](CCCCN)C(=O)N[C@@H](CO)C(=O)N[C@@H](CCCCN)C(=O)N[C@@H](CCCNC(=N)N)C(=O)N[C@@H](CCCCN)C(=O)N[C@H](C(=O)NCCS)C(C)C [CADY-2b] (HELM PEPTIDE1{G.L.W.R.A.L.W.R.A.L.W.R.S.L.W.K.S.K.R.K.V.[SCCN[*:1]]}$$$$V2.0) | 280 |  |
| CC(C)C[C@H](NC(=O)CN)C(=O)N[C@@H](Cc1c[nH]c2ccccc12)C(=O)N[C@@H](CCCNC(=N)N)C(=O)N[C@@H](C)C(=O)N[C@@H](CC(C)C)C(=O)N[C@@H](Cc1c[nH]c2ccccc12)C(=O)N[C@@H](CCCNC(=N)N)C(=O)N[C@@H](C)C(=O)N[C@@H](CC(C)C)C(=O)N[C@@H](Cc1c[nH]c2ccccc12)C(=O)N[C@@H](CCCNC(=N)N)C(=O)N[C@@H](CO)C(=O)N[C@@H](CC(C)C)C(=O)N[C@@H](Cc1c[nH]c2ccccc12)C(=O)N[C@@H](CCCCN)C(=O)N[C@@H](CCCCN)C(=O)N[C@@H](CCCCN)C(=O)N[C@@H](CCCNC(=N)N)C(=O)N[C@@H](CCCCN)C(=O)N[C@H](C(=O)NCCS)C(C)C [CADY-2c] (HELM PEPTIDE1{G.L.W.R.A.L.W.R.A.L.W.R.S.L.W.K.K.K.R.K.V.[SCCN[*:1]]}$$$$V2.0) | 340 |  |
| CC(C)C[C@H](NC(=O)CN)C(=O)N[C@@H](Cc1c[nH]c2ccccc12)C(=O)N[C@@H](CCCNC(=N)N)C(=O)N[C@@H](C)C(=O)N[C@@H](CC(C)C)C(=O)N[C@@H](Cc1c[nH]c2ccccc12)C(=O)N[C@@H](CCCNC(=N)N)C(=O)N[C@@H](CC(C)C)C(=O)N[C@@H](CC(C)C)C(=O)N[C@@H](CCCNC(=N)N)C(=O)N[C@@H](CO)C(=O)N[C@@H](CC(C)C)C(=O)N[C@@H](Cc1c[nH]c2ccccc12)C(=O)N[C@@H](CCCNC(=N)N)C(=O)N[C@@H](CC(C)C)C(=O)N[C@@H](CC(C)C)C(=O)N[C@@H](Cc1c[nH]c2ccccc12)C(=O)N[C@@H](CO)C(=O)N[C@@H](CCC(N)=O)C(=O)N1CCC[C@H]1C(=O)N[C@@H](CCCCN)C(=O)N[C@@H](CCCCN)C(=O)N[C@@H](CCCCN)C(=O)N[C@@H](CCCNC(=N)N)C(=O)N[C@@H](CCCCN)C(=O)N[C@H](C(=O)NCCS)C(C)C [CADY-2e] (HELM PEPTIDE1{G.L.W.R.A.L.W.R.L.L.R.S.L.W.R.L.L.W.S.Q.P.K.K.K.R.K.V.[SCCN[*:1]]}$$$$V2.0) | 430 |  |
| CC(=O)NCC(=O)N[C@@H](CC(C)C)C(=O)N[C@@H](Cc1c[nH]c2ccccc12)C(=O)N[C@@H](CCCNC(=N)N)C(=O)N[C@@H](C)C(=O)N[C@@H](CC(C)C)C(=O)N[C@@H](Cc1c[nH]c2ccccc12)C(=O)N[C@@H](CCCNC(=N)N)C(=O)N[C@@H](CC(C)C)C(=O)N[C@@H](CC(C)C)C(=O)N[C@@H](CCCNC(=N)N)C(=O)N[C@@H](CO)C(=O)N[C@@H](CC(C)C)C(=O)N[C@@H](Cc1c[nH]c2ccccc12)C(=O)N[C@@H](CCCNC(=N)N)C(=O)N[C@@H](CC(C)C)C(=O)N[C@@H](CC(C)C)C(=O)N[C@@H](Cc1c[nH]c2ccccc12)C(=O)N[C@@H](CCCCN)C(=O)N[C@@H](C)C(=O)NCCSS[C@H]1CC[C@@]2(C)C(=CC[C@H]3[C@@H]4CC[C@H]([C@H](C)CCCC(C)C)[C@@]4(C)CC[C@@H]32)C1 [CADY-S2] (HELM PEPTIDE1{[ac].G.L.W.R.A.L.W.R.L.L.R.S.L.W.R.L.L.W.K.A.[CC(C)CCC[C@@H](C)[C@H]1CC[C@H]2[C@@H]3CC=C4C[C@@H](SSCCN[*:1])CC[C@]4(C)[C@H]3CC[C@]12C]}$$$$V2.0; N-terminus assumed) |  | EC50 (HS-68 and Hela cells; 12 h): 250 µM |
| WEAALAEALAEALAEHLAEALAEALEALAA [GALA, reference compound] |  | toxicity (HS-68 and Hela cells): > 70% |
| WEAKLAKALAKALAKHLAKALAKALKACEA [KALA, reference compound] |  | toxicity (HS-68 and Hela cells): > 70% |
| Ac-GLWRALWRALWRSLWKLKWKV-Cysteamide [CADY-2 (Ac-…-Cya)] |  | Kd [1]: 0.019 µM; ratio at saturation (cargo/CADY molar ratio) [1]: 0.05 |
